The text below walks through data of US20250250232A1, “AZETIDINE DERIVATIVES AND USE THEREOF AS DIPEPTIDYL PEPTIDASE 1 INHIBITORS” (CHIESI FARMACEUTICI S.P.A., priority 2022, published 2025).

Several values for one entry are separate records, joined by “and”; a condition that tells them apart may be missing. Equal entries are not always repeated.

The first assay deals with T1, human DPP1 enzyme (Homo sapiens (Human), UniProt P53634).
T1 sequence (P53634 231-394): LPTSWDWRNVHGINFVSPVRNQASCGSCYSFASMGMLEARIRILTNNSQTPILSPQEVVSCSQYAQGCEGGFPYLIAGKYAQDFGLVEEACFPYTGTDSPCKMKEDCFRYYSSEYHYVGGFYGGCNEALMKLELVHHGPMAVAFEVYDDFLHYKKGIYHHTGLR
T1 sequence (P53634 25-134): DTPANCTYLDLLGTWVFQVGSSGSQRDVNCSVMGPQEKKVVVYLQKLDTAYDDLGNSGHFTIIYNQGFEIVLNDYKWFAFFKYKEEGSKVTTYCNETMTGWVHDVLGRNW
T1 sequence (P53634 395-463): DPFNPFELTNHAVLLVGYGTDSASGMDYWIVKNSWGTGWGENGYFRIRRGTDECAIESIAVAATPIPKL
Experiment: not given
Conditions: values from K Doyle, J. Med. Chem. 2016, Table 3; cited from earlier work.
Regarding `N#C[C@H](Cc1ccc(-c2ccc3c(c2)C2(CCN(C4COC4)CC2)OC3)cc1F)NC(=O)C1(C(F)F)CNC1` [compound 15, (S)-N-(1-cyano-2-(2-fluoro-4-(1′-(oxetan-3-yl)-3H-spiro[isobenzofuran-1,4′-piperidin]-6-yl)phenyl)ethyl)-3-(difluoromethyl)azetidine-3-carboxamide], the “pIC50 in the human recombinant DPP1 isolated enzyme assay (state of the art)” value (from here on “pIC50 … (state of the art)”) was “less than 5”. In the case of `Cn1c(=O)oc2ccc(-c3ccc(C[C@@H](C#N)NC(=O)C4(C(F)F)CNC4)cc3)cc21` [compound 14, (S)-N-(1-cyano-2-(4-(3-methyl-2-oxo-2,3-dihydrobenzo[d]oxazol-5-yl)phenyl)ethyl)-3-(difluoromethyl)azetidine-3-carboxamide], the “pIC50 … (state of the art)” value is on record as “less than 5”. As for `CN1C(=O)Cc2ccc(-c3ccc(C[C@@H](C#N)NC(=O)C4(C(F)F)CNC4)c(F)c3)cc21` [compound 16, (S)-N-(1-cyano-2-(2-fluoro-4-(1-methyl-2-oxoindolin-6-yl)phenyl)ethyl)-3-(difluoromethyl)azetidine-3-carboxamide], the “pIC50 … (state of the art)” value is 5.9.

For the next assay, the target named is T1, human DPP1 enzyme. Nature of the assay: Activity on human recombinant DPP1 isolated enzyme assay (H-Gly-Arg-AMC cleavage, fluorescence). The following applies: 0.35 nM human DPP1, 300 μM H-Gly-Arg-AMC, 30 min pre-incubation at 25° C., pH 5.0. It counts as biochemical. As for the experimental part:
Human DPP1 enzyme activity was determined by measuring release of the fluorophore aminomethyl coumarin (AMC) following enzymatic cleavage of the dipeptide substrate H-Gly-Arg-AMC. Assays were performed in black 384 well plates in 25 mM piperazine buffer, pH 5.0, containing 50 mM NaCl, 0.01% (v/v) Triton X100, 5 mM DTT with 0.35 nM human DPP1 enzyme, 300 μM H-Gly-Arg-AMC substrate (˜Km concentration) and test compounds at 0.51-10000 nM concentration range. Human DPP1 was pre-incubated with test compounds for 30 minutes at 25° C. prior to substrate incubation for a further 40 minutes at 25° C. Enzyme activity was determined by measuring fluorescence of the AMC product at excitation and emission wavelengths of 380 nm and 460 nm using a BMG LABTECH PHERA star plate reader. Test compound potencies are reported in Table 15 as pIC50 values generated from 4-parameter sigmoidal curve fitting of the measured concentration-inhibition responses.
Take `COC1(C(=O)N[C@H](C#N)Cc2ccc(-c3ccc4c(c3)N(C)C(=O)C4)cc2F)CNC1` [Example 49, (S)-N-(1-cyano-2-(2-fluoro-4-(1-methyl-2-oxoindolin-6-yl)phenyl)ethyl)-3-methoxyazetidine-3-carboxamide]: the “h DPP1 pIC50” value is reported as “++++ (h DPP1 pIC50 higher than 8)”. In the case of `CN1C(=O)Cc2ccc(-c3ccc(C[C@@H](C#N)NC(=O)C4(CF)CNC4)c(F)c3)cc21` [Example 48, (S)-N-(1-cyano-2-(2-fluoro-4-(1-methyl-2-oxoindolin-6-yl)phenyl)ethyl)-3-(fluoromethyl)azetidine-3-carboxamide], the “h DPP1 pIC50” value is “++++ (h DPP1 pIC50 higher than 8)”. The same measure, in the same setting: the entry for `COC1(C(=O)N[C@H](C#N)Cc2ccc(-c3ccc4oc(=O)n(C)c4c3)cc2F)CNC1` [Example 36, (S)-N-(1-cyano-2-(2-fluoro-4-(3-methyl-2-oxo-2,3-dihydrobenzo[d]oxazol-5-yl)phenyl)ethyl)-3-methoxyazetidine-3-carboxamide] is “++++ (h DPP1 pIC50 higher than 8)”.

Staying with this assay, now noted: 0.35 nM human DPP1, 300 μM H-Gly-Arg-AMC, 30 min pre-incubation at 25° C., pH 5.0; read-out: h DPP1 pIC50 (converted).
Turning to `N#Cc1ccc(-c2ccc(C[C@@H](C#N)NC(=O)C3CNC3)cc2)cc1` [Example 9, (S)-N-(1-cyano-2-(4′-cyano-[1,1′-biphenyl]-4-yl)ethyl)azetidine-3-carboxamide], the IC50 was 1 to 10 µM and 0.1 to 1 µM. On the same count and under the same terms, the figure for `CC(C)OC1(C(=O)N[C@H](C#N)Cc2ccc(-c3ccc(C#N)cc3)cc2)CNC1` [Example 26, (S)-N-(1-cyano-2-(4′-cyano-[1,1′-biphenyl]-4-yl)ethyl)-3-isopropoxyazetidine-3-carboxamide] is 1 to 10 µM; for `COC1(C(=O)N[C@H](C#N)Cc2ccc(-c3ccc(C#N)cc3)cc2)CN(CC(C)C)C1` [Example 51, (S)-N-(1-cyano-2-(4′-cyano-[1,1′-biphenyl]-4-yl)ethyl)-1-isobutyl-3-methoxyazetidine-3-carboxamide] it is 1 to 10 µM. Same read-out and setting: as for `COC1(C(=O)N[C@H](C#N)Cc2ccc(-c3ccc(C#N)cc3)cc2)CN(C(C)C)C1` [Example 30, (S)-N-(1-cyano-2-(4′-cyano-[1,1′-biphenyl]-4-yl)ethyl)-1-isopropyl-3-methoxyazetidine-3-carboxamide], the figure is 1 to 10 µM. Turning to `N#Cc1ccc(-c2ccc(C[C@@H](C#N)NC(=O)C3(Oc4ccccc4)CNC3)cc2)cc1` [Example 21, (S)-N-(1-cyano-2-(4′-cyano-[1,1′-biphenyl]-4-yl)ethyl)-3-phenoxyazetidine-3-carboxamide], the IC50 was 1 to 10 µM. On the same count and under the same terms, the figure for `N#Cc1ccc(-c2ccc(C[C@@H](C#N)NC(=O)C3(F)CNC3)cc2)cc1` [Example 2, (S)-N-(1-cyano-2-(4′-cyano-[1,1′-biphenyl]-4-yl)ethyl)-3-fluoroazetidine-3-carboxamide] is 0.1 to 1 µM; for `CC1NCC1C(=O)N[C@H](C#N)Cc1ccc(-c2ccc(C#N)cc2)cc1` (stereo partly drawn) [Example 3, N-((S)-1-cyano-2-(4′-cyano-[1,1′-biphenyl]-4-yl)ethyl)-2-methylazetidine-3-carboxamide] it is 1 to 10 µM; for `COC1(C(=O)N[C@H](C#N)Cc2ccc(-c3ccc4c(c3)N(C)C(=O)C4)cc2)CNC1` [Example 22, (S)-N-(1-cyano-2-(4-(1-methyl-2-oxoindolin-6-yl)phenyl)ethyl)-3-methoxyazetidine-3-carboxamide] it is 0.01 to 0.1 µM. Still for that read-out and setting: the figure for `N#Cc1ccc(-c2ccc(C[C@@H](C#N)NC(=O)C3(C(F)F)CNC3)c(F)c2)cc1` [Example 13, (S)-N-(1-cyano-2-(4′-cyano-3-fluoro-[1,1′-biphenyl]-4-yl)ethyl)-3-(difluoromethyl)azetidine-3-carboxamide] is 0.01 to 0.1 µM; for `Cn1c(=O)oc2ccc(-c3ccc(C[C@@H](C#N)NC(=O)C4(C(F)F)CNC4)cc3)cc21` [Example 14, (S)-N-(1-cyano-2-(4-(3-methyl-2-oxo-2,3-dihydrobenzo[d]oxazol-5-yl)phenyl)ethyl)-3-(difluoromethyl)azetidine-3-carboxamide] it is 0.01 to 0.1 µM. Still for that read-out and setting: the figure for `CCC1(C(=O)N[C@H](C#N)Cc2ccc(-c3ccc(C#N)cc3)cc2)CNC1` [Example 5, (S)-N-(1-cyano-2-(4′-cyano-[1,1′-biphenyl]-4-yl)ethyl)-3-ethylazetidine-3-carboxamide] is 0.1 to 1 µM; for `COC1(C(=O)N[C@H](C#N)Cc2ccc(-c3ccc(C#N)cc3)cc2F)CNC1` [Example 12, (S)-N-(1-cyano-2-(4′-cyano-3-fluoro-[1,1′-biphenyl]-4-yl)ethyl)-3-methoxyazetidine-3-carboxamide] it is 0.01 to 0.1 µM.

Consider `CCCN1CC(OC)(C(=O)N[C@H](C#N)Cc2ccc(-c3ccc(C#N)cc3)cc2)C1` [Example 46, (S)-N-(1-cyano-2-(4′-cyano-[1,1′-biphenyl]-4-yl)ethyl)-3-methoxy-1-propylazetidine-3-carboxamide], for which the IC50 is 1 to 10 µM.

The same assay, now with this note: human recombinant DPP1 isolated enzyme assay; read-out: pIC50 on DPP1 (converted).
As for `N#Cc1ccc(-c2ccc(C[C@@H](C#N)NC(=O)C3CNC3)cc2)cc1` [Example 9, (S)-N-(1-cyano-2-(4′-cyano-[1,1′-biphenyl]-4-yl)ethyl)azetidine-3-carboxamide], the IC50 was 1 to 10 µM.
